Patent EP4111863A1, “PHOSPHORUS USE EFFICIENCY ENHANCERS AS PLANT GROWTH PROMOTORS” (EuroChem Antwerpen, priority 2021, dated 2023)

System: SPX1
Assay: Chemical activity assessment: SPX1 phosphate starvation biomarker, pSPX1::GUS reporter line, GUS stained area
Type: in vivo, Arabidopsis thaliana
Details: 50 µM compound, low phosphate modMS liquid medium, 7 days after germination, low phosphate control average of the same plate
Experimental: All Arabidopsis plant experiments were performed using the Arabidopsis thaliana Columbia-0 background. The Arabidopsis pSPX1::GUS line is described in the […] 2008, 54: 965-975. For rice, the cultivar Nipponbare was used. For maize, the cultivars DKC 2931 and B104 were used for regular pot experiments and sand-based pot experiments, respectively. For soybean, the cultivar Primus was used. […] The medium was solidified due to the addition of 0,6% Gelrite, unless stated otherwise. In case of vertical plates (root length and root hair measurements), the medium was supplied with 0.5% of sucrose and 1 µM (low phosphate, 1 µM KH2PO4, 9.9 mM KCI), 10 µM (low phosphate 10 µM KH2PO4, 9.9 mM KCI) or 1.25 mM KH2PO4 (high phosphate). Arabidopsis seeds were stratified for 2 days at 4 °C before germination. Seedlings were germinated in climate-controlled growth chambers at 22 °C under continuous light (100 µmol m^-2 s^-1). Husked rice seeds were germinated on wetted Whatman paper for 2 days at 37 °C and then transferred to Sterivent boxes or square Petri dishes with solid medium. Maize and soybean seeds were wetted 24 hours at room temperature prior to sowing in pots.
For the chemical activity assessment 3 to 8 seeds per well of Arabidopsis pSPX1::GUS line were sown in 96-well plates containing 150 µl of low phosphate modMS liquid medium containing 1% of sucrose. Compounds were added in 50 µM concentration, starting from a 5 mM stock of compounds solved in DMSO. Different chemical substances were separately added to different wells. Per plate, 16 control wells were used, 8 containing only the low phosphate medium and 1% DMSO, and 8 containing high phosphate medium and 1% DMSO. 7 days after germination, plates were scanned using a flatbed scanner (EPSON Expression 11000XL) and analyzed for leaf size. After scanning, the growth medium was replaced by GUS staining solution (see Plant Mol. Biol. Rep. 1994, 12: 37-42 for details) and incubated for 1.5 hours at 37 °C. The plates were scanned a second time and analyzed for GUS signal area. Measurements of both leaf area and GUS signal area were conducted by filtering out and measure the green and blue signal, respectively using ImageJ software. If the green leaf area was 50% or less than the control, samples were omitted. Additionally, all results were visually screened for leaf size and GUS signal.

SMILES	GUS (SPX1) stained area normalized to the number of seeds (pixels) (Table 3)	GUS (SPX1) stained area normalized to the number of seeds (pixels) (Table 2)
OC(COc1cccc2ccccc12)CN1CCOC2CCCCC21 (stereo not shown)	34 pixels	
O=C(COc1cc(Cl)ccc1Cl)NCc1ccc(N2CCOCC2)nc1	3 pixels	
Cc1csc(C2COCCN2C(=O)NC2CCc3ccccc32)n1 (stereo not shown)	12 pixels	
CC(C)(C)c1n[nH]c(C2CN(C(=O)c3ccc[nH]3)CCO2)n1 (stereo not shown)	5 pixels	
Cc1ccc(C2COCCN2C(=O)Nc2nnc(C(F)F)s2)o1 (stereo not shown)	26 pixels	
Cc1csc(C2CN(Cc3ncc(C(C)(C)C)o3)CCO2)n1 (stereo not shown)	5 pixels	
Cc1cccn2c(=O)cc(CN3CCOC(c4ccc(F)cc4)C3)nc12 (stereo not shown)	19 pixels	
O=S(=O)(c1ccc(OCCN(C2CC2)C2CCCc3ccccc32)cc1)N1CCOCC1 (stereo not shown)	3 pixels	
Cc1nnc(CN2CCOCC2c2cccn2C)o1 (stereo not shown)	50 pixels	
CC(C)c1ncsc1C(=O)NCC1CN(C)CCO1 (stereo not shown) [Compound 4.4]		106 pixels
Cc1ccc(CS(=O)(=O)c2nnc(N3CCOCC3)n2C)cc1	4 pixels	
O=C(Cc1c[nH]c2cc(Cl)ccc12)N1CCOCC1c1ncon1 (stereo not shown)	22 pixels	
CCC(CC)C(C(=O)NCc1cccc(C)c1)N1CCOCC1 (stereo not shown)	11 pixels	
O=C(NC1CCSc2ccc(Cl)cc21)c1ccc(N2CCOCC2)c([N+](=O)[O-])c1 (stereo not shown)	27 pixels	
NC(=O)C1COCCN1c1cnc2cc(Cl)c(Cl)cc2n1 (stereo not shown)	3 pixels	
c1ccc(OCCNCCN2CCOCC2)cc1	23 pixels	
Clc1cnccc1N1CCC(OCCN2CCOCC2)CC1	491 pixels	
c1coc(CNc2nc(N3CCOCC3)nc3ccccc23)c1	2 pixels	
O=C(Cn1c(NCCO)nc2ccccc21)N1CCOCC1	16 pixels	

SMILES	GUS (SPX1) stained area normalized to the number of seeds (pixels) (Table 3)	GUS (SPX1) stained area normalized to the number of seeds (pixels) (Table 2)
Cc1csc(C2CN(Cc3csc(C(C)(C)C)n3)CCO2)n1 (stereo not shown)	1 pixels	
CCN(CC)S(=O)(=O)c1ccc(N2CCOCC2)c(NC(=O)c2ccccc2OC)c1	7 pixels	
CCn1c(Sc2nnnn2-c2ccccc2)nc2cc(S(=O)(=O)N3CCOCC3)ccc21	14 pixels	
O=C(COn1nnc2ccc(Cl)cc21)Nc1cc(S(=O)(=O)N2CCOCC2)ccc1Cl	7 pixels	
O=C(COc1cccc(F)c1)Nc1sc2c(c1C(=O)N1CCOCC1)CCCC2	10 pixels	
CCCCn1c(N)c(C(=O)NCCN2CCOCC2)c2nc3ccccc3nc21	20 pixels	
C=CCn1c(SCc2cccc(S(=O)(=O)N3CCOCC3)c2)nc2ccccc21	1 pixels	
CC1CN(C(=O)C2(c3ccc(F)cc3)CC2)CC1N1CCOCC1 (stereo not shown)	53 pixels	
Cc1cnc(CN2CCOC(c3nc(C(C)C)n[nH]3)C2)o1 (stereo not shown)	7 pixels	
CC1CN(C(=O)c2nn(-c3ccccc3)c(=O)c3ccccc23)CC(C)O1 (stereo not shown)	10 pixels	
CC1CN(C(=O)c2cc(Cl)c(Cl)n2C)CCO1 (stereo not shown)	14 pixels	
C1CCC(Sc2nnc(N3CCOCC3)s2)C1	35 pixels	
CC(C)CC1COCCN1C(=O)Nc1nnc(C(F)(F)F)s1 (stereo not shown)	7 pixels	
O=C1NC(c2cc3ccccc3nc2N2CCOCC2)Nc2ccccc21 (stereo not shown)	14 pixels	
Cn1cc(C2CN(Cc3ccc(CSC(F)F)o3)CCO2)cn1 (stereo not shown)	15 pixels	
CCC(CC)C(CNC(=O)Nc1ccccc1F)N1CCOCC1 (stereo not shown)	37 pixels	
Fc1cc(C2CNCCO2)c(Cl)cc1Cl (stereo not shown)	27 pixels	
CCC1CN(Cc2cc(=O)n3cc(Cl)ccc3n2)CCO1 (stereo not shown)	47 pixels	
